Assay results reported in the NIST ThermoML archive (doi:10.1021/je0201323).

Test: xn = mol fraction of the nth substance listed
Settings: for mass density: 101.3 kPa, Liquid, vibrating tube; for surface tension liquid-gas: Pendant drop shape

Cc1ccccc1 [toluene] + CCCCCCC
Settings | mass density [kg/m3] | surface tension liquid-gas [mN/m]
278.15 K, x2 = 0 | 880.3 | –
278.15 K, x2 = 0.15 | 843.7 | –
278.15 K, x2 = 0.299 | 811.3 | –
278.15 K, x2 = 0.449 | 782 | –
278.15 K, x2 = 0.595 | 756.4 | –
278.15 K, x2 = 0.749 | 732.6 | –
283.15 K, x2 = 0 | 875.9 | –
283.15 K, x2 = 0.15 | 839.3 | –
283.15 K, x2 = 0.299 | 807 | –
283.15 K, x2 = 0.449 | 777.8 | –
283.15 K, x2 = 0.595 | 752.2 | –
283.15 K, x2 = 0.749 | 728.4 | –
287.81 K, x2 = 0 | – | 28.93
287.81 K, x2 = 0.299 | – | 24.49
287.81 K, x2 = 0.449 | – | 23.38
287.81 K, x2 = 0.595 | – | 22.41
287.81 K, x2 = 0.749 | – | 21.58
288.15 K, x2 = 0 | 871.4 | –
288.15 K, x2 = 0.15 | 834.9 | –
288.15 K, x2 = 0.299 | 802.7 | –
288.15 K, x2 = 0.449 | 773.5 | –
288.15 K, x2 = 0.595 | 747.9 | –
288.15 K, x2 = 0.749 | 724.2 | –
293.15 K, x2 = 0 | 866.9 | –
293.15 K, x2 = 0.15 | 830.5 | –
293.15 K, x2 = 0.299 | 798.3 | –
293.15 K, x2 = 0.449 | 769.1 | –
293.15 K, x2 = 0.595 | 743.6 | –
293.15 K, x2 = 0.749 | 719.9 | –
297.82 K, x2 = 0 | – | 27.76
297.82 K, x2 = 0.15 | – | 25.16
297.82 K, x2 = 0.299 | – | 23.47
297.82 K, x2 = 0.449 | – | 22.17
297.82 K, x2 = 0.595 | – | 21.35
297.82 K, x2 = 0.749 | – | 20.56
298.15 K, x2 = 0 | 862.4 | –
298.15 K, x2 = 0.15 | 826 | –
298.15 K, x2 = 0.299 | 794.1 | –
298.15 K, x2 = 0.449 | 764.7 | –
298.15 K, x2 = 0.595 | 739.2 | –
298.15 K, x2 = 0.749 | 715.6 | –
303.15 K, x2 = 0 | 857.8 | –
303.15 K, x2 = 0.15 | 821.5 | –
303.15 K, x2 = 0.299 | 789.4 | –
303.15 K, x2 = 0.449 | 760.3 | –
303.15 K, x2 = 0.595 | 734.8 | –
303.15 K, x2 = 0.749 | 711.2 | –
307.86 K, x2 = 0 | – | 26.6
307.86 K, x2 = 0.15 | – | 24.08
307.86 K, x2 = 0.299 | – | 22.42
307.86 K, x2 = 0.449 | – | 21.23
307.86 K, x2 = 0.595 | – | 20.31
307.86 K, x2 = 0.749 | – | 19.62
308.15 K, x2 = 0 | 853.2 | –
308.15 K, x2 = 0.15 | 817 | –
308.15 K, x2 = 0.299 | 784.9 | –
308.15 K, x2 = 0.449 | 755.8 | –
308.15 K, x2 = 0.595 | 730.4 | –
308.15 K, x2 = 0.749 | 706.8 | –
313.15 K, x2 = 0 | 848.6 | –
313.15 K, x2 = 0.15 | 812.4 | –
313.15 K, x2 = 0.299 | 780.4 | –
313.15 K, x2 = 0.449 | 751.3 | –
313.15 K, x2 = 0.595 | 725.9 | –
313.15 K, x2 = 0.749 | 702.4 | –
317.86 K, x2 = 0 | – | 25.46
317.86 K, x2 = 0.15 | – | 23.03
317.86 K, x2 = 0.299 | – | 21.39
317.86 K, x2 = 0.449 | – | 20.28
317.86 K, x2 = 0.595 | – | 19.37
317.86 K, x2 = 0.749 | – | 18.62
318.15 K, x2 = 0 | 843.9 | –
318.15 K, x2 = 0.15 | 807.8 | –
318.15 K, x2 = 0.299 | 775.8 | –
318.15 K, x2 = 0.449 | 746.8 | –
318.15 K, x2 = 0.595 | 721.4 | –
318.15 K, x2 = 0.749 | 697.9 | –
323.15 K, x2 = 0 | 839.2 | –
323.15 K, x2 = 0.15 | 803.1 | –
323.15 K, x2 = 0.299 | 771.2 | –
323.15 K, x2 = 0.449 | 742.2 | –
323.15 K, x2 = 0.595 | 716.9 | –
323.15 K, x2 = 0.749 | 693.4 | –
327.88 K, x2 = 0 | – | 24.29
327.88 K, x2 = 0.15 | – | 22.05
327.88 K, x2 = 0.299 | – | 20.44
327.88 K, x2 = 0.449 | – | 19.31
327.88 K, x2 = 0.595 | – | 18.43
327.88 K, x2 = 0.749 | – | 17.66
328.15 K, x2 = 0 | 834.5 | –
328.15 K, x2 = 0.15 | 798.5 | –
328.15 K, x2 = 0.299 | 766.5 | –
328.15 K, x2 = 0.449 | 737.6 | –
328.15 K, x2 = 0.595 | 712.3 | –
328.15 K, x2 = 0.749 | 688.8 | –
333.15 K, x2 = 0 | 829.8 | –
333.15 K, x2 = 0.15 | 793.8 | –
333.15 K, x2 = 0.299 | 761.8 | –
333.15 K, x2 = 0.449 | 733 | –
333.15 K, x2 = 0.595 | 707.7 | –
333.15 K, x2 = 0.749 | 684.2 | –
